Test [1] relates to Globodera pallida eggs. In words: Hatching accelerating effect evaluation test for Globodera pallida (liquid immersion test). The format is in vivo. The conditions noted are these: 1 mL of 2 ppm test reagent solution added to 1 mL egg suspension; 16° C.; about 2 weeks; two replicates. Here is the method: A predetermined amount of compound (I) was dissolved in an aqueous solution containing 0.05% (v/v) of polyoxyethylene sorbitan monolaurate (Tween20) to prepare a 100 ppm solution of compound (I).
The 100 ppm solution of compound (I) was further diluted with a 0.05% (v/v) Tween20 aqueous solution to prepare a test reagent solution with a concentration of compound (I) of 2 ppm.
The cysts of Globodera pallida increased in a greenhouse before the previous year were isolated from the soil, immersed in distilled water and kept at 16° C. for about 2 weeks were crushed with a scalpel and the eggs were taken out to obtain an egg suspension. After preparing a density of approximately 600 eggs per mL, Tween 20 was added to a concentration of 0.05% (v/v). 1 mL of this egg suspension was put into a 13.5 mL screw cap glass vial (inner diameter: 2.1 cm, height: 4.8 cm), and 1 mL each of a test reagent solution with a concentration of compound (I) of 2 ppm was added. It was covered and kept at 16° C.
About 2 weeks later, 1 mL was taken out, and the number of hatching larvae and the number of eggs were counted under a stereomicroscope. Two replicates were installed for each compound, and the average hatching rate was calculated.

Test [2] deals with Globodera pallida. In words: Reduction test of Globodera pallida egg density (pot test). The format is in vivo. The conditions noted are these: 30 days, three pots; for Average density reduction rate at 10 ppm (%): 32 mL of 10 ppm test reagent solution in 800 mL field soil; for Average density reduction rate at 100 ppm (%): 32 mL of 100 ppm test reagent solution in 800 mL field soil. The procedure: After 20 mg of compound (I) was dissolved in 1 mL of dimethylsulfoxide, 199 mL of a 0.1% polyoxyethylene sorbitan monolaurate aqueous solution was added thereto, to obtain a test reagent solution with a concentration of compound (I) of 100 ppm. Further, this was diluted 10-fold with distilled water, to prepare a 10 ppm test reagent solution.
Soil was collected from a field infected with Globodera pallida, and the egg density was investigated, as follows. The cysts were separated from 100 g of the dried soil by dry flotation-sieving method and crushed to release nematode eggs, and the number of eggs was counted under a stereomicroscope. This was taken as the initial density.
32 mL of the test reagent solution adjusted to 100 ppm or 10 ppm was added to 800 mL of the collected field soil, followed by stirring well. It was packed in a plastic pot (upper diameter: 10.5 cm, height: 22.5 cm), and placed in a greenhouse without any planting for 30 days. Each pot was watered with 26 mL of distilled water every 6 to 7 days.
After 30 days, the soil was spread on an aluminum bat and air-dried, and the cysts were separated from 100 g of the dry soil in the same manner as above, to count the number of remaining eggs (density after treatment). Three pots were installed per concentration for each compound, and the average density reduction rate was calculated from the initial density and the density after treatment.

Test [3] concerns Globodera pallida. In words: Reduction test of Globodera pallida egg density (field plot test). In kind it is in vivo. The following applies: for Gp density reduction rate: about 80 days, average of four plots. The procedure: With reference to Formulation Example 4, a 10% solution of compound No. 2 was prepared. This 10% solution was diluted with distilled water, to prepare test reagent solutions with concentrations of 300 ppm, 30 ppm, and 3 ppm.
Round plots (diameter:30 cm) were installed in a field infected with Globodera pallida, and the reducing effect of reagent solution treatment on the nematode egg density in soil was investigated. Each plot was prepared by burying a cylinder (30 cm in diameter and 25 cm in height) made of polyethylene sheet to a depth of 20 cm. Test plots were installed in the field and soil samples in each plot were collected for the initial density survey. Then, the test reagent solution of each concentration was sprayed at a ratio of 5 or 1 L per square meter and the soil in the plot was mixed with a shovel to a depth of 15 cm. As a result, treatments with four different doses of compound (1500, 300, 30 and 3 g per 10 a) were prepared.
About 80 days later, the soil in each plots was collected, and the nematode egg density in the soil was investigated, as follows. The cysts were separated from 100 g of dried soil by a sieving cyst flow method, crushed with a scalpel to extract eggs, suspended in distilled water to extract a certain amount, and the number of eggs was counted under a stereomicroscope.
Four plots were installed for each concentration, and the average density reduction rate was calculated from the initial density and final density.

Test [4] deals with Gp. The conditions noted are these: relative to natural hatching factor; cited from earlier work.

Some results are limits rather than exact numbers.

Take `Cc1ccc(C2CC(=O)NC2(C)C)cc1` (stereo not drawn) [Compound 2, 5,5-dimethyl-4-(4-methylphenyl)-2-pyrrolidinone]: in test [1], the “Average hatching rate (%)” value is 94.3%. The “Average density reduction rate at 10 ppm (%)” value in test [2] turned out to be 95.4%. Moreover, the “Average density reduction rate at 100 ppm (%)” value in test [2] turned out to be 98.0%. The “Gp density reduction rate” value was 65.6% in test [3] (dose 3 g/10 a), 94.4% in test [3] (dose 300 g/10 a), 98.4% in test [3] (dose 1500 g/10 a) and 88.8% in test [3] (dose printed as 'g/10 a' (third dose level)). Moreover, the “Reduction of Gp density in the soil” value in test [3] (dose of 30 g or more per 10a) is on record as at least 80%.
As to `CC1(C)NC(=O)CC1c1ccc(Cl)cc1` (stereo not drawn) [Compound 3, 5,5-dimethyl-4-(4-chlorophenyl)-2-pyrrolidinone], the “Average hatching rate (%)” value in test [1] is on record as 95.2%. For the same molecule, in test [2], the “Average density reduction rate at 10 ppm (%)” value stood at 97.4% and the “Average density reduction rate at 100 ppm (%)” value turned out to be 98.5%.
Taken in the same sequence, the figures for `CC1(C)NC(=O)CC1c1ccc(Br)cc1` (stereo not drawn) [Compound 4, 5,5-dimethyl-4-(4-bromophenyl)-2-pyrrolidinone] were 97.9%, 98.8% and 98.9%.
Taken in the same sequence, the figures for `CC1(C)NC(=O)CC1c1ccc(F)c(F)c1` (stereo not drawn) [Compound 12, 5,5-dimethyl-4-(3,4-difluoro-phenyl)-2-pyrrolidinone] were 65.4%, 97.7% and 98.8%.
Consider `Cc1ccc(C2CC(=O)OC2(C)C)cc1` (stereo not drawn) [Compound 18, 5,5-dimethyl-4-(p-tolyl)dihydrofuran-2(3H)-one], for which, in test [1], the “Average hatching rate (%)” value was determined as 97.1%. In test [2], the “Average density reduction rate at 10 ppm (%)” value came to 81.7% and the “Average density reduction rate at 100 ppm (%)” value is reported as 96.2%.
In the same order, the values of `Cc1ccc(C2CCC(=O)NC2(C)C)cc1` (stereo not drawn) [Compound A-3, 6,6-dimethyl-5-(p-tolyl)piperidin-2-one] are 97.2%, 94.9% and 97.2%.
Consider `Cc1ccc(C2=CC(=O)OC2(C)C)c(C)c1` [Compound D-15], for which the “Average hatching rate (%)” value in test [1] was determined as 94.9%. Further, in test [2], the “Average density reduction rate at 10 ppm (%)” value is given as 85.8% and the “Average density reduction rate at 100 ppm (%)” value came to 98.2%.
Take `CC1=NN(c2ccc([N+](=O)[O-])cc2)C(=O)C1[N+](=O)[O-]` (stereo not drawn) [picrolonic acid]: the “Hatching activity, % of that of the natural hatching factor” value (from here on “Hatching activity, %”) in test [4] is given as “about 30%”.
For the molecule `[Na+].[Na+].[Na+].[O]=[V]([O-])([O-])[O-]` [sodium orthovanadate], in test [4], the “Hatching activity, %” value is on record as around 60%.
As for `N#C[S-].[Na+]` [sodium thiocyanate], in test [4], the “Hatching activity, %” value was “about 30%”.
As for sodium metavanadate, the “Hatching activity, %” value in test [4] is around 70%.

(Values after patent US20260240154A1, “GLOBODERA PALLIDA CONTROL AGENT” (National Agriculture and Food Research Organization, priority 2021, published 2026).)
